Test: Encapsulation efficiency of drug in PLGA / cyclodextrin delivery matrix
Assay type: physicochemical
[1] = PLGA and Hydroxy-propyl β-Cyclodextrin
[2] = PLGA and Methylated β-Cyclodextrin

SMILES	Encapsulation Efficiency (%) (PGLA, no cyclodextrin)	Encapsulation Efficiency (amount encapsulated) (PGLA, no cyclodextrin) [µg]	Encapsulation Efficiency (%) [1]	Encapsulation Efficiency (amount encapsulated) [1] [µg]	Encapsulation Efficiency (%) [2]	Encapsulation Efficiency (amount encapsulated) [2] [µg]
[H]/N=C(\N/C(=N/[H])NCCCCCCNC(=N)NC(=N)Nc1ccc(Cl)cc1)Nc1ccc(Cl)cc1 [Chx, chlorhexidine]	(9.28%)	185.7	(15.1%)	302.8	(9.02%)	180.5
N=C(NCCCCCCNC(=N)NC(=N)Nc1ccc(Cl)cc1)NC(=N)Nc1ccc(Cl)cc1.O=C(O)[C@H](O)[C@@H](O)[C@H](O)[C@H](O)CO.O=C(O)[C@H](O)[C@@H](O)[C@H](O)[C@H](O)CO [ChxDg, chlorhexidine digluconate]	(10.2%)	204.7	(6.1%)	121.2	(11.5%)	230.3
